Data published in US20230085307A1, “PYRIDAZINONE COMPOUND AND HERBICIDE” (NISSAN CHEMICAL CORPORATION, priority 2019, published 2023).

Each compound was assayed on Japanese bulrush (assay: Test Example 1: herbicidal activity, application before weed generation under submerged conditions (Table 16, symbol B)). Details: amount of applied herbicide 320 g/ha.
Assay type: in vivo, Japanese bulrush (Schoenoplectus juncoides)
Method in brief: (§1)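 Submerged Wagner pots (alluvial soil, 4 cm water) sown with weed seeds and planted with 2.5-leaf rice seedlings; emulsifiable concentrate diluted in water applied to water surface on sowing day. Held in greenhouse at 25-30 °C; injury scored 0-5 by herbicidal rate after three weeks.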

Compound | Herbicidal effect, B: Japanese bulrush
CCOc1ccc2c(-c3c(O)c(C)nn(C)c3=O)c(-c3ccccc3OC)sc2c1Cl [7-003] | 3 (Herbicidal rate of 40% or more and less than 70%)
CCOc1ccccc1-c1sc2c(Cl)c(OCC)ccc2c1-c1c(O)c(C)nn(C)c1=O [7-004] | 3 (Herbicidal rate of 40% or more and less than 70%)

The compounds below were run on oval-leafed pondweed (assay: Test Example 1: herbicidal activity, application before weed generation under submerged conditions (Table 16, symbol C)). Details: amount of applied herbicide 320 g/ha.
Assay type: in vivo, oval-leafed pondweed (Monochoria vaginalis)
Method in brief: as §1

Compound | Herbicidal effect, C: oval-leafed pondweed
CCOc1ccc2c(-c3c(O)c(C)nn(C)c3=O)c(-c3ccccc3OC)sc2c1Cl [7-003] | 0 (Herbicidal rate of 5% or less (almost no effect))
CCOc1ccccc1-c1sc2c(Cl)c(OCC)ccc2c1-c1c(O)c(C)nn(C)c1=O [7-004] | 0 (Herbicidal rate of 5% or less (almost no effect))

These compounds were tested on Japanese bulrush (assay: Test Example 2: herbicidal activity, application during weed generation under submerged conditions (Table 17, symbol B)). Details: AAH 320 g/ha; application during weed generation, submerged conditions.
Assay type: in vivo, Japanese bulrush (Schoenoplectus juncoides)
Method in brief: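 Effect on each weed is rated three weeks post-treatment, using the same scoring criteria as the preceding test. Plants grow from mixed-sown seed in flooded alluvial soil (4 cm water) at 25° C. to 30° C., and are treated at one to two leaves with diluted emulsion dropped onto the water.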

Compound | herbicidal effect rating, B: Japanese bulrush
CCOc1ccc2c(-c3c(O)c(C)nn(C)c3=O)c(-c3ccccc3OC)sc2c1Cl [7-003] | 3 (Herbicidal rate of 40% or more and less than 70%)
CCOc1ccccc1-c1sc2c(Cl)c(OCC)ccc2c1-c1c(O)c(C)nn(C)c1=O [7-004] | 3 (Herbicidal rate of 40% or more and less than 70%)

These compounds were tested on Chinese sprangletop (assay: Test Example 3: herbicidal effect by foliage application, Wagner pot (Table 18, symbol D)). Details: amount of applied herbicide 320 g/ha.
Assay type: in vivo, chinese sprangletop (Leptochloa chinensis)
Method in brief: (§2)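 Plants were sown in alluvial soil held under 0.1–0.5 cm standing water and grown 14 days in a greenhouse at 25–30 °C. An emulsifiable formulation, water-diluted to the set dose, was then sprayed onto the foliage, and effects were scored three weeks later using previously defined criteria.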

Compound | Herbicidal effect on D (Chinese sprangletop), foliage application
CCOc1ccc2c(-c3c(O)c(C)nn(C)c3=O)c(-c3ccccc3OC)sc2c1Cl [7-003] | 3 (Herbicidal rate of 40% or more and less than 70%)
CCOc1ccccc1-c1sc2c(Cl)c(OCC)ccc2c1-c1c(O)c(C)nn(C)c1=O [7-004] | 5 (Herbicidal rate of 90% or more (almost completely withered))

The compounds below were run on rice flat sedge (assay: Test Example 3: herbicidal effect by foliage application, Wagner pot (Table 18, symbol E)). Details: amount of applied herbicide 320 g/ha.
Assay type: in vivo, rice flat sedge (Cyperus iria)
Method in brief: as §2

Compound | Herbicidal effect on E (rice flat sedge), foliage application
CCOc1ccc2c(-c3c(O)c(C)nn(C)c3=O)c(-c3ccccc3OC)sc2c1Cl [7-003] | 5 (Herbicidal rate of 90% or more (almost completely withered))
CCOc1ccccc1-c1sc2c(Cl)c(OCC)ccc2c1-c1c(O)c(C)nn(C)c1=O [7-004] | 5 (Herbicidal rate of 90% or more (almost completely withered))

What follows are compounds tested on green foxtail (assay: Test Example 4: herbicidal effect by soil treatment (Table 19, symbol G)). Details: amount of applied herbicide 320 g/ha.
Assay type: in vivo, green foxtail (Setaria viridis)
Method in brief: (§3)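 Soil-surface application: an emulsion agent diluted with water to the predetermined dose is sprayed uniformly over seeds lying under roughly 1.5 cm of sterilized diluvial soil. Boxes stay in a greenhouse at 25° C. to 30° C. Three weeks later, each species is graded on previously defined criteria.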

Compound | G: green foxtail, herbicidal effect grade
CCOc1ccc2c(-c3c(O)c(C)nn(C)c3=O)c(-c3ccccc3OC)sc2c1Cl [7-003] | 0 (Herbicidal rate of 5% or less (almost no effect))
CCOc1ccccc1-c1sc2c(Cl)c(OCC)ccc2c1-c1c(O)c(C)nn(C)c1=O [7-004] | 5 (Herbicidal rate of 90% or more (almost completely withered))

Each compound was assayed on wild oat (assay: Test Example 4: herbicidal effect by soil treatment (Table 19, symbol I)). Details: amount of applied herbicide 320 g/ha.
Assay type: in vivo, wild oat (Avena fatua)
Method in brief: as §3

Compound | I: wild oat, herbicidal effect grade
CCOc1ccc2c(-c3c(O)c(C)nn(C)c3=O)c(-c3ccccc3OC)sc2c1Cl [7-003] | 0 (Herbicidal rate of 5% or less (almost no effect))
CCOc1ccccc1-c1sc2c(Cl)c(OCC)ccc2c1-c1c(O)c(C)nn(C)c1=O [7-004] | 0 (Herbicidal rate of 5% or less (almost no effect))

Each compound was assayed on Italian ryegrass (assay: Test Example 4: herbicidal effect by soil treatment (Table 19, symbol K)). Details: amount of applied herbicide 320 g/ha.
Assay type: in vivo, Italian ryegrass (Lolium multiflorum)
Method in brief: as §3

Compound | K: Italian ryegrass, herbicidal effect grade
CCOc1ccc2c(-c3c(O)c(C)nn(C)c3=O)c(-c3ccccc3OC)sc2c1Cl [7-003] | 0 (Herbicidal rate of 5% or less (almost no effect))
CCOc1ccccc1-c1sc2c(Cl)c(OCC)ccc2c1-c1c(O)c(C)nn(C)c1=O [7-004] | 4 (Herbicidal rate of 70% or more and less than 90%)

Each compound was assayed on windgrass (assay: Test Example 4: herbicidal effect by soil treatment (Table 19, symbol L)). Details: amount of applied herbicide 320 g/ha.
Assay type: in vivo, windgrass (Apera spica-venti)
Method in brief: as §3

Compound | L: windgrass, herbicidal effect grade
CCOc1ccc2c(-c3c(O)c(C)nn(C)c3=O)c(-c3ccccc3OC)sc2c1Cl [7-003] | 0 (Herbicidal rate of 5% or less (almost no effect))
CCOc1ccccc1-c1sc2c(Cl)c(OCC)ccc2c1-c1c(O)c(C)nn(C)c1=O [7-004] | 0 (Herbicidal rate of 5% or less (almost no effect))

These compounds were tested on redroot pigweed (assay: Test Example 4: herbicidal effect by soil treatment (Table 19, symbol N)). Details: amount of applied herbicide 320 g/ha.
Assay type: in vivo, redroot pigweed (Amaranthus retroflexus)
Method in brief: as §3

Compound | N: redroot pigweed, herbicidal effect grade
CCOc1ccc2c(-c3c(O)c(C)nn(C)c3=O)c(-c3ccccc3OC)sc2c1Cl [7-003] | 5 (Herbicidal rate of 90% or more (almost completely withered))
CCOc1ccccc1-c1sc2c(Cl)c(OCC)ccc2c1-c1c(O)c(C)nn(C)c1=O [7-004] | 4 (Herbicidal rate of 70% or more and less than 90%)

What follows are compounds tested on chickweed (assay: Test Example 4: herbicidal effect by soil treatment (Table 19, symbol P)). Details: amount of applied herbicide 320 g/ha.
Assay type: in vivo, common chickweed (Stellaria media)
Method in brief: as §3

Compound | P: chickweed, herbicidal effect grade
CCOc1ccc2c(-c3c(O)c(C)nn(C)c3=O)c(-c3ccccc3OC)sc2c1Cl [7-003] | 4 (Herbicidal rate of 70% or more and less than 90%)
CCOc1ccccc1-c1sc2c(Cl)c(OCC)ccc2c1-c1c(O)c(C)nn(C)c1=O [7-004] | 4 (Herbicidal rate of 70% or more and less than 90%)

What follows are compounds tested on southern crabgrass (assay: Test Example 5: herbicidal effect by foliage application, plastic box (Table 20, symbol F)). Details: foliage application, 320 g/ha, three weeks after application.
Assay type: in vivo, southern crabgrass (Digitaria ciliaris)
Method in brief: (§4)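 Sow seeds spot-wise in sterilized diluvial soil; cover with ~1.5 cm soil. Grow 14 days in greenhouse, 25° C. to 30° C. Spray foliage with emulsion diluted to predetermined amount. Rate effect after 3 weeks.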

Compound | herbicidal effect on southern crabgrass (F)
CCOc1ccc2c(-c3c(O)c(C)nn(C)c3=O)c(-c3ccccc3OC)sc2c1Cl [7-003] | 1 (Herbicidal rate of 5% or more and less than 20%)
CCOc1ccccc1-c1sc2c(Cl)c(OCC)ccc2c1-c1c(O)c(C)nn(C)c1=O [7-004] | 5 (Herbicidal rate of 90% or more (almost completely withered))

Each compound was assayed on wild oat (assay: Test Example 5: herbicidal effect by foliage application, plastic box (Table 20, symbol I)). Details: foliage application, 320 g/ha, three weeks after application.
Assay type: in vivo, wild oat (Avena fatua)
Method in brief: as §4

Compound | herbicidal effect on wild oat (I)
CCOc1ccc2c(-c3c(O)c(C)nn(C)c3=O)c(-c3ccccc3OC)sc2c1Cl [7-003] | 0 (Herbicidal rate of 5% or less (almost no effect))
CCOc1ccccc1-c1sc2c(Cl)c(OCC)ccc2c1-c1c(O)c(C)nn(C)c1=O [7-004] | 0 (Herbicidal rate of 5% or less (almost no effect))

These compounds were tested on windgrass (assay: Test Example 5: herbicidal effect by foliage application, plastic box (Table 20, symbol L)). Details: foliage application, 320 g/ha, three weeks after application.
Assay type: in vivo, windgrass (Apera spica-venti)
Method in brief: as §4

Compound | herbicidal effect on windgrass (L)
CCOc1ccc2c(-c3c(O)c(C)nn(C)c3=O)c(-c3ccccc3OC)sc2c1Cl [7-003] | 3 (Herbicidal rate of 40% or more and less than 70%)
CCOc1ccccc1-c1sc2c(Cl)c(OCC)ccc2c1-c1c(O)c(C)nn(C)c1=O [7-004] | 0 (Herbicidal rate of 5% or less (almost no effect))

Each compound was assayed on lambsquarters (assay: Test Example 5: herbicidal effect by foliage application, plastic box (Table 20, symbol O)). Details: foliage application, 320 g/ha, three weeks after application.
Assay type: in vivo, lambsquarters (Chenopodium album)
Method in brief: as §4

Compound | herbicidal effect on lambsquarters (O)
CCOc1ccc2c(-c3c(O)c(C)nn(C)c3=O)c(-c3ccccc3OC)sc2c1Cl [7-003] | 5 (Herbicidal rate of 90% or more (almost completely withered))
CCOc1ccccc1-c1sc2c(Cl)c(OCC)ccc2c1-c1c(O)c(C)nn(C)c1=O [7-004] | 4 (Herbicidal rate of 70% or more and less than 90%)

The compounds below were run on persian speedwell (assay: Test Example 5: herbicidal effect by foliage application, plastic box (Table 20, symbol R)). Details: foliage application, 320 g/ha, three weeks after application.
Assay type: in vivo, Persian speedwell (Veronica persica)
Method in brief: as §4

Compound | herbicidal effect on persian speedwell (R)
CCOc1ccc2c(-c3c(O)c(C)nn(C)c3=O)c(-c3ccccc3OC)sc2c1Cl [7-003] | 5 (Herbicidal rate of 90% or more (almost completely withered))
CCOc1ccccc1-c1sc2c(Cl)c(OCC)ccc2c1-c1c(O)c(C)nn(C)c1=O [7-004] | 5 (Herbicidal rate of 90% or more (almost completely withered))
